Earlier results as cited in patent US9421272B2, “Nanocarrier compositions and methods” (RUTGERS, THE STATE UNIVERSITY OF NEW JERSEY, priority 2009, dated 2016).

Tests used:
[1] = disulfide bond; relative to cysteamine linker
[2] = biological target: T1, PepT1 (Homo sapiens, UniProt P46059); settings: interaction between valacyclovir and PepT1
T1 sequence (P46059 1-708): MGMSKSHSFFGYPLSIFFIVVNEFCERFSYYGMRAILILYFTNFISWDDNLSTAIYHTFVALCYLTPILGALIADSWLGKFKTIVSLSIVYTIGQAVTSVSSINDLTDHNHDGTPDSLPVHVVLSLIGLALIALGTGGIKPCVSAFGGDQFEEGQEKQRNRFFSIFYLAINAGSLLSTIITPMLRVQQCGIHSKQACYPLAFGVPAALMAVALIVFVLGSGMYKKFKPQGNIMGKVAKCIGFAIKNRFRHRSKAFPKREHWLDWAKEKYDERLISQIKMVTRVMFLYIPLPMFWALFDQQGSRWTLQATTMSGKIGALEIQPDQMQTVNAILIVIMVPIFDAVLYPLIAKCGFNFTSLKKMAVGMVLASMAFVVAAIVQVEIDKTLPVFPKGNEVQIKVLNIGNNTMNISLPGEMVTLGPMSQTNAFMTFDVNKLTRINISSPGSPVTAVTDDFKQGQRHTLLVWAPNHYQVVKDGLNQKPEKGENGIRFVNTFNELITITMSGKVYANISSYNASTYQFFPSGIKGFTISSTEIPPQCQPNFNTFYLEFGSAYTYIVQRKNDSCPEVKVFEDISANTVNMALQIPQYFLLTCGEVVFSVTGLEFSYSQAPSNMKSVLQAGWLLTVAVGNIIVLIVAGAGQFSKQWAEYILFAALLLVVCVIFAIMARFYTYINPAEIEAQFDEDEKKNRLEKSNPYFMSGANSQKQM

[3] = compared to the counterpart with a 5 kDa linear PEG

Question: For CC(C)(S)CN [1-amino-2-methyl-2-propanethiol], which “degradation rate, slower than the corresponding less hindered cysteamine linker” value [1] is on record?
Answer: about 100 times

Question: With CC(C)[C@H](N)C(=O)OCCOCn1cnc2c(=O)[nH]c(N)nc21 [valacyclovir] as the molecule, how does the “increase in the bioavailability of acyclovir” value [2] read?
Answer: three to four-fold increase

B1: branched 10 kDa PEG to asparaginase: asparaginase bound to a branched 10 kDa PEG (conjugate, UniProt P00805 23-348, looked up)
L-asparaginase 2: LPNITILATGGTIAGGGDSATKSNYTVGKVGVENLVNAVPQLKDIANVKGEQVVNIGSQDMNDNVWLTLAKKINTDCDKTDGFVITHGTDTMEETAYFLDLTVKCDKPVVMVGAMRPSTSMSADGPFNLYNAVVTAADKASANRGVLVVMNDTVLDGRDVTKTNTTDVATFKSVNYGPLGYIHNGKIDYQRTPARKHTSDTPFDVSKLNELPKVGIVYNYANASDLPAKALVDAGYDGIVSAGVGNGNLYKSVFDTLATAAKTGTAVVRSSRVPTGATTQDAEVDDAKYGFVASGTLNPQKARVLLQLALTQTKDPQQIQQIFNQY
modifications: branched 10 kDa PEG
Question: With B1 as the molecule, how does the reduction of antigenicity [3] read?
Answer: 10 fold
